Results reported in paper PMC11432330, “Novel Drug-like HsrA Inhibitors Exhibit Potent Narrow-Spectrum Antimicrobial Activities against Helicobacter pylori” (International Journal of Molecular Sciences, 2024).
In brackets after ≈: the same amount, converted by molar mass. Entries after “also recorded” stand apart in the source; their conditions may differ. Read-outs that look alike come from different tables or passages of the source.

Legend:
[1] = test system: K. pneumoniae ATCC 700603; assay: MIC/MBC according to EUCAST guidelines; type: cell-based, Klebsiella pneumonia; settings: Klebsiella pneumoniae, ATCC700603
Protocol: The antimicrobial activities of the selected compounds against several Gram-negative and Gran-positive representative species of normal human microbiota were determined according to the EUCAST guidelines. Briefly, standardized inoculums (0.5 McFarland) were freshly prepared from overnight Mueller–Hinton agar plates of reference strains E. coli ATCC 25922, K. pneumonia ATCC 700603, E. faecalis ATCC 29212, S. aureus ATCC 29213, S. epidermidis ATCC 12228, and S. agalactiae ATCC 12386. Next, bacterial suspensions adjusted to 5 × 10^5 CFU/mL in Mueller–Hinton broth were exposed to a range of concentrations from 64 to 0.031 mg/L of the selected compounds. DMSO and conventional antibiotics LVX and AMP were included as controls. […] Experiments were performed twice in triplicate.

[2] = test system: response regulator HsrA; assay: EMSA: inhibition of in vitro DNA binding activity of HsrA to promoter PporGDAB; type: biochemical, Helicobacter pylori; settings: 6 μM HsrA, 120 ng PporGDAB, ligand 0.1-2 mM
Protocol: The DNA binding activities of recombinant HsrA and CosR were assessed in vitro by electrophoretic mobility shift assays (EMSAs). A 300-bp promoter region of the H. pylori 26695 operon porGDAB was used as the target sequence of HsrA in all EMSA experiments. Likewise, a 420-bp sequence of the C. jejuni sodB promoter (ATCC 33560) was used as the target DNA of CosR [90]. The oligonucleotides used for the synthesis of these promoter regions are described in Supplementary Table S4. Response regulators HsrA (6 μM) or CosR (700 nM) were mixed with 120 ng of their target promoters in a reaction buffer of 10 mM bis-Tris (pH 7.5), 40 mM KCl, 100 mg/L BSA, 1 mM DTT, and 5% glycerol. For the in vitro inhibition analyses, mixtures of target DNA and response regulator were exposed to 2, 1, 0.5, and 0.1 mM of each compound of interest, incubated at room temperature for 20 min, and then separated on a 6% non-denaturing electrophoresis. DMSO instead of inhibitors was included as a vehicle control, while an internal sequence of the Anabaena sp. pkn22 gene was used as the non-specific competitor in all assays. For DNA-protein binding visualization, gels were stained with the SYBR Safe DNA gel stain (Invitrogen) and analyzed with a Gel Doc 2000 Image Analyzer (Bio-Rad).

[3] = test system: H. pylori ATCC 700392 (26695); assay: MIC/MBC, broth microdilution; type: cell-based, Helicobacter pylori; settings: Helicobacter pylori, ATCC700392
Protocol: (§1) The antimicrobial activity of the HsrA inhibitors was evaluated by the determination of the minimal inhibitory concentration (MIC) against four different strains of H. pylori: ATCC 700392 (aka 26695), ATCC 43504 (MTZ-resistant reference strain), ATCC 700684 (CLR-resistant reference strain), and Donostia 2 (LVX-resistant clinical isolate). The MICs were determined by the broth microdilution method, as previously described. Briefly, H. pylori strains were grown in blood agar at 37 °C for 72 h under microaerobic conditions. Fresh inoculums adjusted at OD600 = 0.01 [~10^6 colony forming units (CFU) per mL] in BHI broth supplemented with 4% fetal bovine serum (BHI + FBS) were prepared and immediately exposed to final concentrations between 64 and 0.031 mg/L of each compound of interest. The compound solvent (DMSO) as well as conventional antibiotics (MTZ, CLR, LVX) were included as controls. […] Each experiment was performed twice in triplicate. The MIC and MBC values of the selected compounds against C. jejuni ATCC 33560 were determined by using the same method and culture conditions described for the H. pylori strains.

[4] = test system: H. pylori ATCC 700684 (CLR-R); assay: MIC/MBC, broth microdilution; type: cell-based, Helicobacter pylori; settings: Helicobacter pylori; for MBC: ATCC700684, read-out: MBC; for MIC: ATCC700684, read-out: MIC
Protocol: as §1

[5] = test system: H. pylori Donostia 2 (LVX-R); assay: MIC/MBC, broth microdilution; type: cell-based, Helicobacter pylori; settings: Helicobacter pylori
Protocol: as §1

[6] = test system: H. pylori ATCC 43504 (MTZ-R); assay: MIC/MBC, broth microdilution; type: cell-based, Helicobacter pylori; settings: Helicobacter pylori, ATCC43504
Protocol: as §1

[7] = test system: H. pylori; assay: MIC across the four H. pylori strains tested (text summaries); type: cell-based, Helicobacter pylori; settings: for MIC: Helicobacter pylori
Protocol: as §1

[8] = test system: C. jejuni ATCC 33560; assay: MIC/MBC, broth microdilution; type: cell-based; settings: Campylobacter jejuni, ATCC33560, C. jejuni ATCC 33560
Protocol: as §1

[9] = target: HsrA (Helicobacter pylori, UniProt O25684); assay: Isothermal titration calorimetry (ITC) with HsrA; type: binding; settings: for ΔG: absolute error 0.1; for ΔH: absolute error 0.4
Protocol: Molecular interactions of the selected ligands with proteins HsrA or CosR were studied by isothermal titration calorimetry (ITC), as previously described. Titrations were assessed in a high-sensitivity MicroCal Auto-iTC200 calorimeter (Malvern Panalytical, Malvern, UK). Experiments were carried out at 25 °C in freshly prepared buffer containing 50 mM Tris-HCl [pH 8], 150 mM NaCl, 10% glycerol, and 1% DMSO. A 20 µM solution of protein was located in the calorimetric cell. Then, a sequence of 19 injections of 2 µL volume each with a 200 µM solution of the corresponding ligand was programmed with a time spacing of 150 s, a stirring speed of 750 rpm, and a reference power of 10 µcal/s in the sample cell. Thermodynamic properties such as binding stoichiometry, dissociation constants, and binding enthalpies were calculated by nonlinear least-squares regression data analysis using Origin 7.0 software.

[10] = H. pylori ATCC 700392 (26695), read-out: MBC
[11] = H. pylori ATCC 700392 (26695), read-out: MIC
[12] = H. pylori Donostia 2 (LVX-R), read-out: MBC
[13] = H. pylori Donostia 2 (LVX-R), read-out: MIC
[14] = H. pylori ATCC 43504 (MTZ-R), read-out: MBC
[15] = H. pylori ATCC 43504 (MTZ-R), read-out: MIC
[16] = four strains incl. CLR-, MTZ- and LVX-resistant, read-out: MIC against all H. pylori strains tested
[17] = ITC, 25 °C, pH 8, relative error 15%, read-out: Kd

HsrA, sequence (O25684 entry or part of it): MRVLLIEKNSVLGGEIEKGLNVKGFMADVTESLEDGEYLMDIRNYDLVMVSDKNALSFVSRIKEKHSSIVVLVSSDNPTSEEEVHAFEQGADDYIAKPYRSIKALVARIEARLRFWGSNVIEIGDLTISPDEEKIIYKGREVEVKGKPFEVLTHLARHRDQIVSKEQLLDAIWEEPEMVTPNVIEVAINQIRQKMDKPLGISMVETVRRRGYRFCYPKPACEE

Compound	MBC [1]	MIC [1]	Inhibition of in vitro DNA binding activity of HsrA (EMSA) [2]	MBC [3, 10]	MIC [3, 11]	MBC [4]	MIC [4]	MBC [5, 12]	MIC [5, 13]	MBC [6, 14]	MIC [6, 15]	MIC [7, 16]	MBC [8]	MIC [8]	n (stoichiometry) ([9]; ITC, 25 °C, pH 8)	ΔG ([9]; ITC, 25 °C)	ΔH ([9]; ITC, 25 °C)	Kd [9, 17]	other results
CSc1cccc(NC(=S)NCCNc2c([N+](=O)[O-])cc(C(F)(F)F)cc2[N+](=O)[O-])c1 [Ligand IV]	> 64 µg/mL	> 64 µg/mL	appreciably stronger; also recorded: noticeably inhibited	4 µg/mL (≈ 8.41 µM)	2 µg/mL (≈ 4.21 µM)	4 µg/mL (≈ 8.41 µM)	4 µg/mL (≈ 8.41 µM)	4 µg/mL (≈ 8.41 µM)	4 µg/mL (≈ 8.41 µM)	4 µg/mL (≈ 8.41 µM)	2 µg/mL (≈ 4.21 µM)	0.031 to 4 µg/mL (≈ 0.0652 to 8.41 µM)	> 64 µg/mL	64 µg/mL (≈ 135 µM)	0.9	–7.4 kcal/mol	–1.6 kcal/mol	–	Kd [9]: 3.9 µM
N#Cc1cnn(-c2ccc(C(F)(F)F)cc2[N+](=O)[O-])c1N [Ligand I]	> 64 µg/mL	> 64 µg/mL	noticeably inhibited	4 µg/mL (≈ 13.5 µM)	4 µg/mL (≈ 13.5 µM)	4 µg/mL (≈ 13.5 µM)	4 µg/mL (≈ 13.5 µM)	2 µg/mL (≈ 6.73 µM)	2 µg/mL (≈ 6.73 µM)	1 µg/mL (≈ 3.36 µM)	1 µg/mL (≈ 3.36 µM)	0.031 to 4 µg/mL (≈ 0.104 to 13.5 µM)	32 µg/mL (≈ 108 µM)	32 µg/mL (≈ 108 µM)	1.0	–6.7 kcal/mol	–1.2 kcal/mol	13 µM	–
NC(=NOC(=O)Nc1ccc(Cl)cc1)c1csc([N+](=O)[O-])c1 [Ligand V, N′-{[(4-chloroanilino)carbonyl]}oxy-5-nitrothiophene-3-carboximidamide]	> 64 µg/mL	> 64 µg/mL	noticeably inhibited	–	–	0.031 µg/mL (≈ 0.091 µM)	0.031 µg/mL (≈ 0.091 µM)	–	–	–	–	0.031 to 4 µg/mL (≈ 0.091 to 11.7 µM)	≤ 0.5 µg/mL	≤ 0.5 µg/mL	1.0	–6.7 kcal/mol	–1.9 kcal/mol	13 µM	MBC [3]: 0.125 µg/mL (≈ 0.367 µM); MIC [3]: 0.063 µg/mL (≈ 0.185 µM); MBC [5]: 0.125 µg/mL (≈ 0.367 µM); MIC [5]: 0.125 µg/mL (≈ 0.367 µM); MBC [6]: 0.125 µg/mL (≈ 0.367 µM); MIC [6]: 0.125 µg/mL (≈ 0.367 µM); MIC ([7]; read-out: MIC against all H. pylori strains tested, four strains incl. CLR-, MTZ- and LVX-resistant): 0.031 to 0.125 µg/mL (≈ 0.091 to 0.367 µM); Antimicrobial potency relative to ligand XII ([7]; same H. pylori strains): at least 4 fold; Antimicrobial potency relative to metronidazole ([7]; same H. pylori strains): more than 10 fold; Affinity to HsrA relative to ligand XII ([9]; ITC): > 3 fold
OC1(C(F)(F)F)CC(c2ccc3c(c2)Nc2ccccc2S3)=NN1 (stereo not shown) [Ligand VIII]	> 64 µg/mL	> 64 µg/mL	appreciably stronger; also recorded: noticeably inhibited	2 µg/mL (≈ 5.69 µM)	1 µg/mL (≈ 2.85 µM)	2 µg/mL (≈ 5.69 µM)	1 µg/mL (≈ 2.85 µM)	2 µg/mL (≈ 5.69 µM)	2 µg/mL (≈ 5.69 µM)	2 µg/mL (≈ 5.69 µM)	1 µg/mL (≈ 2.85 µM)	0.031 to 4 µg/mL (≈ 0.0882 to 11.4 µM)	32 µg/mL (≈ 91.1 µM)	16 µg/mL (≈ 45.5 µM)	0.9	–6.8 kcal/mol	0.8 kcal/mol	10 µM	–
N#C/C(=C\C=C\c1ccccc1)c1nc2ccccc2[nH]1 [Ligand XII]	> 64 µg/mL	> 64 µg/mL	noticeably inhibited	2 µg/mL (≈ 7.37 µM)	2 µg/mL (≈ 7.37 µM)	0.5 µg/mL (≈ 1.84 µM)	0.5 µg/mL (≈ 1.84 µM)	1 µg/mL (≈ 3.69 µM)	1 µg/mL (≈ 3.69 µM)	0.5 µg/mL (≈ 1.84 µM)	0.5 µg/mL (≈ 1.84 µM)	0.031 to 4 µg/mL (≈ 0.114 to 14.7 µM)	> 64 µg/mL	64 µg/mL (≈ 236 µM)	1.0	–6.0 kcal/mol	0.8 kcal/mol	43 µM	–
CSc1cccc(Nc2nc(C(C)(C)C)cs2)c1 [Ligand XI]	> 64 µg/mL	> 64 µg/mL	noticeably inhibited	4 µg/mL (≈ 14.4 µM)	4 µg/mL (≈ 14.4 µM)	4 µg/mL (≈ 14.4 µM)	2 µg/mL (≈ 7.18 µM)	4 µg/mL (≈ 14.4 µM)	2 µg/mL (≈ 7.18 µM)	4 µg/mL (≈ 14.4 µM)	2 µg/mL (≈ 7.18 µM)	0.031 to 4 µg/mL (≈ 0.111 to 14.4 µM)	> 64 µg/mL	> 64 µg/mL	1.1	–5.9 kcal/mol	–3.1 kcal/mol	49 µM	–
